Assay results reported in patent publication US20240360194A1, “New Peptides as Potent and Selective GIP Receptor Agonists” (Sanofi, priority 2021, published 2024).
Values after ≈ are worked out from the molar mass of the structure shown. Numbered stars: 1 amine (or outer) side, 2 acyl side, 3 side chain; on linkers, the order of the positions; unused ones are H or OH. Square brackets hold non-standard residues; d marks the D form. Side chains are listed from the residue outwards. Ends that are not written are not given here. Peptide text beside a SMILES is read from it. * marks the point of attachment. ξ: configuration not given here. C18 diacid = O=C(O)CCCCCCCCCCCCCCCCC(=O)*; γGlu = O=C(O)[C@H](CCC(=O)[*:2])N[*:1]; tBuAla = CC(C)(C)C[C@H](N)C(=O)O; ξIva = CCC(C)(N)C(=O)O; AEEA = NCCOCCOCC(=O)O; Aib = CC(C)(N)C(=O)O

T1: human GIP receptor (Homo sapiens, UniProt P48546)
T1 construct: human adipocytes endogenously expressing the human GIP receptor; host or cells: human preadipocytes (Lonza) differentiated to adipocytes
T1 sequence (P48546 22-466): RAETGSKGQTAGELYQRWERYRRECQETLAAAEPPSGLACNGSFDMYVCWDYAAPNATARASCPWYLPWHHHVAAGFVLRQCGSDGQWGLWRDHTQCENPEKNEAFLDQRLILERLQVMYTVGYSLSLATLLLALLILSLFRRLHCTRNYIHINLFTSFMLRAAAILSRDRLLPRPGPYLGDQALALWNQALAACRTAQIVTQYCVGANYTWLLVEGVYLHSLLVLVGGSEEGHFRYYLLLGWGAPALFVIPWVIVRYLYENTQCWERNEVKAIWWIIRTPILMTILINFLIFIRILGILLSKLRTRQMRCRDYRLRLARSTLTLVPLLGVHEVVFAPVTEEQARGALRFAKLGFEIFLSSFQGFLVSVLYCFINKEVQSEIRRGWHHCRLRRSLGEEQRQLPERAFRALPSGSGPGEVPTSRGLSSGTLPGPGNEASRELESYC

T2: human GIP receptor (human, UniProt P48546 22-466)
T2 sequence (looked up): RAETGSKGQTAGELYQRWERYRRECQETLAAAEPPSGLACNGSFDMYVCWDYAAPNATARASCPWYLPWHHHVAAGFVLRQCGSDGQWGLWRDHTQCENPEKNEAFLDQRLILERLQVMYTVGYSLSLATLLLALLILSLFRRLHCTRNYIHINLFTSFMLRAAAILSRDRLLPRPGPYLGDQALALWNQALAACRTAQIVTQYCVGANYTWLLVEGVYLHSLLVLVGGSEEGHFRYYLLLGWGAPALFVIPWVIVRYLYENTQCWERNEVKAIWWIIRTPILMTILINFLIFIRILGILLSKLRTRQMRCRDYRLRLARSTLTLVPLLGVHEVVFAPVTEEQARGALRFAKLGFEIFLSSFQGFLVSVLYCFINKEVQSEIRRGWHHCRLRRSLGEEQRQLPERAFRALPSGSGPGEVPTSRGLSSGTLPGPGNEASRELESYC

B1: SEQ ID NO: 33 (peptide)
peptide: Y[Aib]EGTFISDLSI[Aib]K([AEEA-AEEA-γGlu-C18 diacid])DRIHQEEFIEWL[tBuAla]AQGPSSGAPPPS-NH2
modifications: N-terminus assumed
SMILES: CC[C@H](C)[C@H](NC(=O)[C@H](Cc1ccccc1)NC(=O)[C@H](CCC(=O)O)NC(=O)[C@H](CCC(=O)O)NC(=O)[C@H](CCC(N)=O)NC(=O)[C@H](Cc1c[nH]cn1)NC(=O)[C@@H](NC(=O)[C@H](CCCNC(=N)N)NC(=O)[C@H](CC(=O)O)NC(=O)[C@H](CCCCNC(=O)COCCOCCNC(=O)COCCOCCNC(=O)CC[C@H](NC(=O)CCCCCCCCCCCCCCCCC(=O)O)C(=O)O)NC(=O)C(C)(C)NC(=O)[C@@H](NC(=O)[C@H](CO)NC(=O)[C@H](CC(C)C)NC(=O)[C@H](CC(=O)O)NC(=O)[C@H](CO)NC(=O)[C@@H](NC(=O)[C@H](Cc1ccccc1)NC(=O)[C@@H](NC(=O)CNC(=O)[C@H](CCC(=O)O)NC(=O)C(C)(C)NC(=O)[C@@H](N)Cc1ccc(O)cc1)[C@@H](C)O)[C@@H](C)CC)[C@@H](C)CC)[C@@H](C)CC)C(=O)N[C@@H](CCC(=O)O)C(=O)N[C@@H](Cc1c[nH]c2ccccc12)C(=O)N[C@@H](CC(C)C)C(=O)N[C@@H](CC(C)(C)C)C(=O)N[C@@H](C)C(=O)N[C@@H](CCC(N)=O)C(=O)NCC(=O)N1CCC[C@H]1C(=O)N[C@@H](CO)C(=O)N[C@@H](CO)C(=O)NCC(=O)N[C@@H](C)C(=O)N1CCC[C@H]1C(=O)N1CCC[C@H]1C(=O)N1CCC[C@H]1C(=O)N[C@@H](CO)C(N)=O

Columns and labels:
[1] = Solubility assessment (UHPLC-UV of supernatant, target 10 mg/ml); type: physicochemical; details: pH 7.4, Soluble amount
Description: Prior to the solubility measurement of a peptide batch, its purity was determined through UHPLC/MS.
Therefore, solutions from solid samples were prepared in a buffer system with a concentration of 10 mg/ml compound based on the previously determined % purity: • Solubility buffer system A) 100 mM phosphate buffer pH 7.4 • Solubility buffer system B) 8 mM phosphate buffer pH 7.4, 14 mg/ml propylene glycol, 5.5 mg/ml phenol • Solubility buffer system C) 100 mM phosphate buffer pH 7.4, 2.7 mg/ml m-cresol
UHPLC-UV was performed after 1 h of gentle agitation and storage at 5° C. overnight (24 h) from the supernatant, which was obtained after 15 min of centrifugation at 2500 RCF (relative centrifugal acceleration).
The different UV extinction coefficients of sample and reference peptide were calculated based on the different amino acid sequences and considered in the concentration calculation.
The analytical method used was Analytical UHPLC Method A.
Peptide samples were prepared in solubility buffer system A or C and solubility was assessed as described in Methods.

human GIP receptor [2] = molecular target: T1, human GIP receptor; assay: In vitro cellular cAMP assay for GIP receptor efficacy (human adipocytes); type: cell-based; details: read-out: hGIPR Emax
Description: For this, one vial of human preadipocytes (˜10^6 cells; Lonza) was thawed in a T-75 cell culture dish. The cells were cultivated at 37° C., 5% CO2, 95% humidity in Preadipocyte Growth Medium with Supplement Mix from Promo Cell.
After 3 days, the cells were washed with PBS and 1.5 ml Trypsin, incubated for 4 min, then resuspended in medium, centrifugated for 10 min @ 300 rcf RT, resuspended again and distributed to four T-75 cell culture dishes. Again, the cells were cultivated at 37° C., 5% CO2, 95% humidity.
After 5 days, the cells were washed with PBS and 1.5 ml Trypsin, incubated for 4 min, then resuspended in medium, centrifugated for 10 min @ 300 rcf RT, resuspended again and sawn in T-75 dishes (2.5×10^6 cells per dish) in 15 ml Differentiation medium each.
The differentiation medium had the following composition: DMEM (Gibco), Ham's F10 (Gibco), 15 mM HEPES (Gibco), 3% FCS (PAA), 33 μM biotin (Sigma-Aldrich), 17 μM Pantothenate (Sigma-Aldrich), 0.1 μM human insulin (Sigma-Aldrich), 1 μM dexamethason (Sigma-Aldrich), 0.1 μM PPARgamma agonist (#R2408, Sigma-Aldrich), 0.6×Anti-Anti (#15240, ThermoFisher), 200 μM IBMX (AppliChem), and 0.01 μM L-thyroxine (Sigma-Aldrich).
After 6 days of differentiation, 5000 cells per well were dispensed on a 96-well plate (#CLS3694 from Corning®, Sigma-Aldrich). For measurement of cAMP generation, 25 μL of test compound was added to each well of the 96-well plate, followed by incubation for 30 min at room temperature.
The cAMP generated following test compound stimulation was determined using a kit from Cisbio Corp. based on HTRF (Homogenous Time Resolved Fluorescence). The cAMP assay was performed according to manufacturer's instructions (Cisbio).
The cAMP content of cells was determined using a kit from Cisbio Corp. based on HTRF (Homogenous Time Resolved Fluorescence).
After addition of HTRF reagents diluted in lysis buffer (kit components), the plates were incubated for 1 h, followed by measurement of the fluorescence ratio at 665/620 nm.

human GIP receptor [3] = molecular target: T2, human GIP receptor; assay: cell-based or functional assay

| Molecule | solubility [1] | Emax (human GIP receptor [2]) | EC50 hGIPR 0% HSA (cAMP, HEK-293) (human GIP receptor [3]) | EC50 hGIPR 0.1% BSA (cAMP, HEK-293) (human GIP receptor [3]) |
| --- | --- | --- | --- | --- |
| CC[C@H](C)[C@H](NC(=O)[C@H](Cc1ccccc1)NC(=O)[C@H](CCC(=O)O)NC(=O)[C@H](CCC(=O)O)NC(=O)[C@H](CCC(N)=O)NC(=O)[C@H](Cc1c[nH]cn1)NC(=O)[C@@H](NC(=O)[C@H](CCCNC(=N)N)NC(=O)[C@H](CC(=O)O)NC(=O)[C@H](CCCCNC(=O)COCCOCCNC(=O)COCCOCCNC(=O)CC[C@H](NC(=O)CCCCCCCCCCCCCCCCC(=O)O)C(=O)O)NC(=O)C(C)(C)NC(=O)[C@@H](NC(=O)[C@H](CO)NC(=O)[C@H](CC(C)C)NC(=O)[C@H](CC(=O)O)NC(=O)[C@H](CO)NC(=O)[C@@H](NC(=O)C(C)(CC)NC(=O)[C@@H](NC(=O)CNC(=O)[C@H](CCC(=O)O)NC(=O)C(C)(C)NC(=O)[C@@H](N)Cc1ccc(O)cc1)[C@@H](C)O)[C@@H](C)CC)[C@@H](C)CC)[C@@H](C)CC)C(=O)N[C@@H](CCC(=O)O)C(=O)N[C@@H](Cc1c[nH]c2ccccc12)C(=O)N[C@@H](CC(C)C)C(=O)N[C@@H](CC(C)C)C(=O)N[C@@H](C)C(=O)N[C@@H](CCC(N)=O)C(=O)NCC(=O)N1CCC[C@H]1C(=O)N[C@@H](CO)C(=O)N[C@@H](CO)C(=O)NCC(=O)N[C@@H](C)C(=O)N1CCC[C@H]1C(=O)N1CCC[C@H]1C(=O)N1CCC[C@H]1C(=O)N[C@@H](CO)C(N)=O (stereo partly drawn) [SEQ ID NO: 24, H2N-Y-Aib-E-G-T-Iva-I-S-D-L-S-I-Aib-K[{AEEA}2-gGlu-C18OH]-DRIHQEEFIEWLLAQGPSSGAPPPS-NH2] (H-Y[Aib]EGT[ξIva]ISDLSI[Aib]K([AEEA-AEEA-γGlu-C18 diacid])DRIHQEEFIEWLLAQGPSSGAPPPS-NH2) | 7800 µg/mL (≈ 1570 µM) | 100% |  |  |
| B1 |  |  | 0.22 pM | 64.4 pM |
